Reference: patent publication US6093563A, “Chondroitin lyase enzymes” (IBEX Technologies R and D, Inc., priority 1994, dated 2000)

Columns and labels:
[1] = biological target: Flavobacterium heparinum chondroitinase B (55,000 Dalton, purified, Sequence ID No. 4) (Pedobacter heparinus, UniProt Q46079); conditions: 0.1 mM reagent; 20 mM Tris buffer, pH 8.0; 0.5 mg/ml dermatan sulfate as substrate; none = 100
Method: (§1) Chondroitinase activity was determined by a modification of the spectrophotometric assay described by Yang, et al., J. Biol. Chem., 160(30):1849-1857, 1985. Chondroitinases degrade their respective substrates by an eliminative reaction resulting in the formation of 4,5-unsaturated sulfated disaccharides which absorb ultraviolet light at 232 nm. Reaction buffers contained 50 mM Tris, pH 8.0 and 0.5 mg/ml substrate; dermatan sulfate for chondroitinase B activity, chondroitin sulfate A for chondroitinase AC activity. A continuous spectrophotometric assay is carried out by transferring a 10 to 50 μl sample to a quartz cuvette and adding the reaction buffer to make a final volume of one ml. The cuvette is placed in a Beckman DU 640 spectrophotometer, controlled to maintain a constant temperature of 30° C., and the increase in absorbance at 232 nm monitored for three to five minutes. Activities are calculated using the molar extinction coefficient for chondroitin sulfate, 5.1×103 M^-1, and are expressed in international units, IU, where one IU is the amount of enzyme required to catalyze the formation of one μmole unsaturated product per minute.

[2] = biological target: Flavobacterium heparinum chondroitinase AC (77,000 Dalton, purified, Sequence ID No. 2) (Pedobacter heparinus, UniProt Q59288); conditions: 0.1 mM reagent; 20 mM Tris buffer, pH 8.0; 0.5 mg/ml chondroitin sulfate A as substrate; none = 100
Sequence of Flavobacterium heparinum chondroitinase AC (77,000 Dalton, purified, Sequence ID No. 2) (Q59288 23-700): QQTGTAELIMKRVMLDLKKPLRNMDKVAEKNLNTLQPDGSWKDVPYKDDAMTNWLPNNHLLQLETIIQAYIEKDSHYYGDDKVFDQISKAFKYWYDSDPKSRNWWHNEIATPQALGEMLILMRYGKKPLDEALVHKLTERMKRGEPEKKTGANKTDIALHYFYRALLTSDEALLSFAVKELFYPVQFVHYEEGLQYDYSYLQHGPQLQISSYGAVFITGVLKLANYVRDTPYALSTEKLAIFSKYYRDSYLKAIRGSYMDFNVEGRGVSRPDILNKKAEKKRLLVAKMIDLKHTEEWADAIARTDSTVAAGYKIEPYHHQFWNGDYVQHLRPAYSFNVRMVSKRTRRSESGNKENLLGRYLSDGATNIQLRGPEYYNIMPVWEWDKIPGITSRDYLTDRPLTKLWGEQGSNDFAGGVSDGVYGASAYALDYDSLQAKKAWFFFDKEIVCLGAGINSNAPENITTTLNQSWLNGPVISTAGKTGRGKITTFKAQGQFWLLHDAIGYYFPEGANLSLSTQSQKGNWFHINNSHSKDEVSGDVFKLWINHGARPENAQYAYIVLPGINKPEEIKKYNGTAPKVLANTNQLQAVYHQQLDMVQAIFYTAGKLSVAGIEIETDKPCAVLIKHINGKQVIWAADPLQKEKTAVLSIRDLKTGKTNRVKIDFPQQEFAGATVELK
Method: as §1

Sequence of Flavobacterium heparinum chondroitinase B (55,000 Dalton, purified, Sequence ID No. 4) (Q46079 26-506): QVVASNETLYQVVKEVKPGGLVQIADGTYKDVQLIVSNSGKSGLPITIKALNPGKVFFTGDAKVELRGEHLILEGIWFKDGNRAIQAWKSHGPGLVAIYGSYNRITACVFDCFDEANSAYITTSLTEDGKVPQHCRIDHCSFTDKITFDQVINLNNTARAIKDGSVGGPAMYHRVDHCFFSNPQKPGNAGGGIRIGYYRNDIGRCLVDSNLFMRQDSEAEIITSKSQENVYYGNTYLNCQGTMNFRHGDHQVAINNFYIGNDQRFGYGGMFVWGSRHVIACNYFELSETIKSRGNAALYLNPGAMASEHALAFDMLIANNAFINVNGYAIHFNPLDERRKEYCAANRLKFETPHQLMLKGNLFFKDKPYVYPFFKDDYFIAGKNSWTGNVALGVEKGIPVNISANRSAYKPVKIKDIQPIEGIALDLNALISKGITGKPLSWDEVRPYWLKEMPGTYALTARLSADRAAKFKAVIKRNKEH

Structure (SMILES): O=C(O)CN(CCN(CC(=O)O)CC(=O)O)CC(=O)O [EDTA]
- chondroitinase B relative activity (%) [1]: 1%
- chondroitinase AC relative activity (%) [2]: 97%
